Common to all, as to assay type: binding, Paenibacillus sp. FPU-7
Assay [1] deals with T1, NagB2.
T1 construct: recombinant without signal peptide (Met1 to Ala20), C-terminal LEHHHHHH
Nature of the assay: SPR (Biacore X100), crystal structure at […] Å, DSF. On the technique in general: Surface plasmon resonance follows binding to a sensor surface in real time, without labels.

In assay [2] the target is T2, NagB1.
T2 construct: recombinant without Met1–Ser21 signal peptide and Cys22–Phe48 (starts at Thr49), C-terminal LEHHHHHH
Nature of the assay: SPR (Biacore X100), crystal structure at […] Å, DSF.

The target of assay [3] is T1, NagB2. Nature of the assay: SPR (Biacore X100), crystal structure at […] Å, DSF. This is another data set of the same source.
Assay [4] concerns the target T2, NagB1. Nature of the assay: SPR (Biacore X100), DSF.

Like-named read-outs stand apart in the source and are kept apart here.

Turning to `CC(=O)N[C@H]1[C@H](O[C@H]2[C@H](O)[C@@H](NC(C)=O)C(O)O[C@@H]2CO)O[C@H](CO)[C@@H](O)[C@@H]1O` (stereo partly shown) [(GlcNAc)2, N,N′-diacetylchitobiose], the Kd came to 190 nM at NagB2 [1] and 173 nM on NagB1 [2].
`CC(=O)N[C@H]1[C@H](O[C@H]2[C@H](O)[C@@H](NC(C)=O)C(O)O[C@@H]2CO)O[C@H](CO)[C@@H](O[C@@H]2O[C@H](CO)[C@@H](O)[C@H](O)[C@H]2NC(C)=O)[C@@H]1O` (stereo partly shown) [(GlcNAc)3, N,N′,N′′-triacetylchitotoriose]: the Kd was determined as 1120 nM on NagB2 [3] and 2970 nM on NagB1 [4].

The term Kd denotes the free concentration of one partner at which half of the binding sites on the other are occupied at equilibrium, for simple one-to-one binding.
